In PMC5853558, “De novo identification of lipid II binding lipopeptides with antibacterial activity against vancomycin-resistant bacteria” (Chemical Science, 2017):
Values after ≈ are worked out from the molar mass of the structure shown. *1 amine or outer side, *2 acyl side, *3 side chain or, on linkers, in order; H or OH if unused. Where a SMILES comes first, the peptide text is derived from it. Bridges are numbered along the chain shown (N, C = ends). Where no end group is shown, it is not given here. [ ]: non-standard residue; d: D form. The star is where a group is joined. TBMB = c1c(C[*:1])cc(C[*:3])cc1C[*:2]; NHtetradecyl = CCCCCCCCCCCCCCN*; NHDecyl = CCCCCCCCCCN*

Columns and labels:
M. luteus (NCTC2665) = assay: microbe, parasite or virus in culture; format: cell-based, Micrococcus luteus; settings: for MIC M. luteus: Supplemental table S7, P8 with varying lipids, broth microdilution
Outline: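 Dilution series of peptide in TSB, up to 512 µg/ml final (lipopeptides up to 64 µg/ml), DMSO 2% final. Mid-log inoculum suspension at 1 x 10^6 CFU/ml, equal volume per well. Incubation at the strain's growth temperature with shaking.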

B. subtilis (168) = assay: microbe, parasite or virus in culture; format: cell-based
Method: (§1) Section 4 Biological and biochemical experiments
(§2) 4.1 Minimum inhibitory concentration assay
(§3) MIC values were determined by using the broth microdilution method. Peptides were dissolved first in DMSO and diluted with broth so that the final peptide concentration was 1024 µg/ml and the DMSO concentration was 4%. Peptide serial dilutions were made in TSB in a polypropylene 96-wells plate using 50 µl volumes. An overnight culture of the organism of interest was diluted to and OD600 of 0.01 and grown until they reach 0.5. The culture was then diluted to 1 x 10^6 CFU/ml and 50 µl of this suspension was added to each well. The highest concentrations were then 512 µg/ml peptide and 2% DMSO. The plates were incubated at the preferred growth temperature of the organism that was used and 250 rpm. […] When […]
(§4) determining the MICs of the lipidated peptides, the lipopeptides were first dissolved in DMSO and diluted with TSB so that the peptide concentration was 128 µg/ml and the DMSO concentration was 4%. After inoculation the highest peptide concentration evaluated was 64 µg/ml and the DMSO concentration was 2%. A DMSO control was tested for each strain to ensure the DMSO did not affect the growth of the particular strain. […]

S. epidermidis (1587) = assay: microbe, parasite or virus in culture; format: cell-based
Method: as §1, §2, §3, §4

S. pyogenes (5448) = assay: microbe, parasite or virus in culture; format: cell-based
Method: as §1, §2, §3, §4

E. faecium (E980) = assay: microbe, parasite or virus in culture; format: cell-based, Enterococcus faecium
Method: as §1, §2, §3, §4

E. faecium (VRE0321) = assay: microbe, parasite or virus in culture; format: cell-based, Enterococcus faecium
Method: as §1, §2, §3, §4

E. faecium (VRE155) = assay: microbe, parasite or virus in culture; format: cell-based, Enterococcus faecium; settings: for MIC VRE E155: Supplemental table S7, P8 with varying lipids, broth microdilution
Method: as §1, §2, §3, §4

E. faecium (VRE2297) = assay: microbe, parasite or virus in culture; format: cell-based, Enterococcus faecium
Method: as §1, §2, §3, §4

E. faecium (VRE7391) = assay: microbe, parasite or virus in culture; format: cell-based, Enterococcus faecium
Method: as §1, §2, §3, §4

Sheep blood = assay: Hemolysis assay; format: cell-based; settings: for Hemolysis 32 µg/ml (after 1 h): Supplemental table S7, sheep blood cells in PBS, 1 h at 37°C, absorption at 414 nm
Method: Sheep blood in Alsever’s solution (2 mL) was diluted with PBS (13 mL) and centrifuged (2,000 RPM, 5 min). The supernatant was discarded and the cells were washed with another 13 mL of PBS and centrifuged. Washing was continued until the supernatant was clear. After the final wash the supernatant was discarded and the packed cells were kept on ice. Serial dilutions of each peptide were made in 50 µl PBS with the highest tested concentration 64 µg/mL in PBS, 2%
DMSO. The packed cells (150 µL) were suspended in PBS (10 mL) and 50 µL of this suspension was added to each well. A well plate column containing 0.1% triton x-100 in DI water was used as the 100% lysis control and a second column with PBS (with 2% DMSO) served as the 0% lysis control. After incubation at 37°C for 1h the plates were centrifuged (2,000 RPM, 5 min) and 25 µL of the supernatant was added to 100 µL DI water in a flat-bottom 96-wells plate (polystyrene). […]

lipid II = assay: Lipid II antagonization assay; format: cell-based, M. luteus; design: key to Result with antagonist Lipid II: +: antagonization of antibiotic activity; -: no antagonization of antibiotic activity; settings: for Result with antagonist Lipid II: Supplemental table S10, peptide at 4x MIC, antagonist at 4 molar equivalents, M. luteus 1 x 10^6 CFU/ml, 16 h at 30°C, growth observed visually; for Effect of pre-incubation with lipid II on antibacterial activity: premixed with an excess of lipid II before addition of a live culture of M. luteus
Method: (§5) To assess the role of lipid II in the mode of action of the lipopeptides a lipid II antagonization assay was employed.[18],[33] This assay was performed by premixing P8-D-C10 or the optimized P8-D-(S6R, R15A)-C10 with an excess of lipid II prior to addition of a live culture of M. luteus. […] To probe the stereochemical aspects of lipid II recognition by the optimized P8-D-(S6R, R15A)-C10 lipopeptide we also prepared and tested the corresponding enantiomeric L-peptide species P8-L-(S6R, R15A)-C10. […] Given that lipid II is a chiral biomolecule we had expected the enantiomeric lipopeptides to have different activities based on the assumption that they would interact differently with lipid II. To further investigate this phenomenon we employed the same lipid II antagonization assay described above. […] To explain this observation we hypothesize that the two enantiomeric peptides interact primarily with the pyrophosphate moiety of lipid II and are therefore less influenced by the chiral elements present elsewhere in the lipid II molecule. The pyrophosphate group is known to be a binding site for many natural occurring lipid II binding peptides.[15],[16] […] To test the hypothesis that both the P8-D-(S6R, R15A)-C10 and P8-L-(S6R, R15A)-C10 lipopeptides interact with the pyrophosphate moiety we performed an additional antagonizaiton experiment using C55-PP.
as §1, §2, §3, §4
(§6) 4.4 Antagonization assays
(§7) Stock solutions of each peptide antibiotic were prepared so that their final concentration in the assay would be 4x MIC. Peptides were transferred to a 96 wells plate and lipid II or C15-P (farnesyl-phosphate) was added at 4 molar equivalents in a final volume of 50 µl. Each well received 50 µl of bacterial suspension (M. luteus) at 1 x 10^6 CFU/ml and the plates were incubated for 16 h at 250 rpm and 30°C. Growth was observed visually (see supplemental table S10 for results).

C55-PP = assay: Antagonization assay with C55-PP; format: cell-based, M. luteus; design: key to Result with antagonist C55-PP: +: antagonization of antibiotic activity; -: no antagonization of antibiotic activity; settings: Supplemental table S10; peptide at 4x MIC, M. luteus, 16 h at 30°C, growth observed visually
Method: as §5, §1, §2, §3, §4, §6, §7

[1] = system: C15-P (farnesyl-phosphate); assay: Antagonization assay with C15-P (negative control); format: cell-based; design: key: +: antagonization of antibiotic activity; -: no antagonization of antibiotic activity; settings: Supplemental table S10, peptide at 4x MIC, 4 molar equivalents, M. luteus, 16 h at 30°C, growth observed visually
Method: as §1, §2, §3, §4, §6, §7
Supplemental table S10. Lipid II antagonization assay results
Result with indicated antagonista
Antibiotic compound Lipid II C55-PP C15-Pb […]
a + = antagonization of antibiotic activity; - = no antagonization of antibiotic activity; b C -P was used as a negative […]
control (C15-P is a watersoluble analogue of the lipid II precursor undecaprenol phosphate).
4.6 Scanning Electron Microscopy
E. faecium E155 was inoculated at an OD600nm of 0.05 into 300 µL of cation adjusted TSB containing P8-D-(S6R, R15A)-C10 or nisin at (both a 2x MIC) along with 1% glucose and 1%
DMSO. An untreated culture was used as control. Following overnight incubation (ca. 16 hr) bacterial cells were fixed for 15 minutes with 1% (v/v) glutaraldehyde in phosphate buffered saline (PBS) at room temperature on poly-L-lysine covered glass slides (12 mm diameter). […]

[2] = footnote to Supplemental table S7; observation in words during MIC experiments
[3] = read-out: Kd for undecaprenyl pyrophosphate (C55-PP); cited from earlier work
[4] = Supplemental table S9, MIC values of Table 2 expressed in µM
[5] = Supplemental table S6, lipidated phage display hits, n.a. = not active, highest tested conc 64 µg/ml
[6] = Table 2, broth microdilution in TSB, 16 h, read visually, highest tested 64 µg/ml
[7] = Supplemental table S9, vancomycin-resistant isolate, MIC values of Table 2 expressed in µM
[8] = Table 2, vancomycin-resistant isolate from hospitalized patients, broth microdilution in TSB, 16 h, highest tested 64 µg/ml

| Molecule | MIC M. luteus (M. luteus (NCTC2665)) | MIC M. luteus (NCTC2665) (M. luteus (NCTC2665); [4]) | MIC B. subtilis (168) (B. subtilis (168); [6]) | MIC S. epidermidis (1587) (S. epidermidis (1587); [6]) | MIC S. pyogenes (5448) (S. pyogenes (5448); [4]) | MIC S. pyogenes (5448) (S. pyogenes (5448); [6]) | MIC E. faecium (E980) (E. faecium (E980); [4]) | MIC E. faecium (E980) (E. faecium (E980); [6]) | MIC E. faecium (VRE0321) (E. faecium (VRE0321); [7]) | MIC E. faecium (VRE0321) (E. faecium (VRE0321); [8]) | MIC VRE E155 (E. faecium (VRE155)) | MIC E. faecium (VRE155) (E. faecium (VRE155); [7]) | MIC E. faecium (VRE2297) (E. faecium (VRE2297); [8]) | MIC E. faecium (VRE7391) (E. faecium (VRE7391); [7]) | MIC E. faecium (VRE7391) (E. faecium (VRE7391); [8]) | Hemolysis 32 µg/ml (after 1 h) (Sheep blood) | Result with antagonist Lipid II (lipid II) | Effect of pre-incubation with lipid II on antibacterial activity (lipid II) | Result with antagonist C55-PP (C55-PP) | Result with antagonist C15-P [1] | also measured |
| --- | --- | --- | --- | --- | --- | --- | --- | --- | --- | --- | --- | --- | --- | --- | --- | --- | --- | --- | --- | --- | --- |
| CCCCCCCCCCNC(=O)CNC(=O)[C@H]1CSCc2cc3cc(c2)CSC[C@@H](NC(=O)[C@@H](CC(C)C)NC(=O)[C@@H](CC(C)C)NC(=O)[C@@H](CO)NC(=O)[C@@H](CCC(N)=O)NC(=O)[C@@H](CC(C)C)NC(=O)[C@@H](CC(C)C)NC(=O)[C@H](NC(=O)[C@@H](C)N)CSC3)C(=O)N2CCC[C@@H]2C(=O)N[C@H](Cc2ccc(O)cc2)C(=O)N[C@H](CO)C(=O)N[C@H]([C@H](C)O)C(=O)N[C@H](Cc2c[nH]cn2)C(=O)N[C@H](CCCNC(=N)N)C(=O)N1 [Peptide P8-D-C10] (H-[dA][dC][dL][dL][dQ][dS][dL][dL][dC][dP][dY][dS][dT][dH][dR][dC]G-NHDecyl; linker 2-9-16 via TBMB) | 4 µg/mL (≈ 1.89 µM) | 3.8 µM (≈ 8.05 µg/mL) | 8–16 μg mL^–1 | 64 μg mL^–1 | 7.6 µM (≈ 16.1 µg/mL) | 8 μg mL^–1 | 30.3 µM (≈ 64.2 µg/mL) | 32 μg mL^–1 | 3.8 µM (≈ 8.05 µg/mL) | 4 μg mL^–1 | 4 µg/mL (≈ 1.89 µM) | 3.8 µM | 8–16 μg mL^–1 | 7.6 µM (≈ 16.1 µg/mL) | 8 μg mL^–1 | 6% | + | antagonization of antibacterial activity | + | - | MIC B. subtilis (B. subtilis (168); [5]): 8 to 16 µg/mL; Hemolysis (Sheep blood; Supplemental table S9, 1 hour incubation at 37 °C, lipopeptides at 32 µg/mL): 6% |
| CCCCCCCCCCCCCCNC(=O)CNC(=O)[C@H]1CSCc2cc3cc(c2)CSC[C@@H](NC(=O)[C@@H](CC(C)C)NC(=O)[C@@H](CC(C)C)NC(=O)[C@@H](CO)NC(=O)[C@@H](CCC(N)=O)NC(=O)[C@@H](CC(C)C)NC(=O)[C@@H](CC(C)C)NC(=O)[C@H](NC(=O)[C@@H](C)N)CSC3)C(=O)N2CCC[C@@H]2C(=O)N[C@H](Cc2ccc(O)cc2)C(=O)N[C@H](CO)C(=O)N[C@H]([C@H](C)O)C(=O)N[C@H](Cc2c[nH]cn2)C(=O)N[C@H](CCCNC(=N)N)C(=O)N1 [Peptide P8-D-C14] (H-[dA][dC][dL][dL][dQ][dS][dL][dL][dC][dP][dY][dS][dT][dH][dR][dC]G-NHtetradecyl; linker 2-9-16 via TBMB; N-terminus assumed) | 4 to 64 µg/mL |  |  |  |  |  |  |  |  |  | 4 to 64 µg/mL |  |  |  |  | 12% |  |  |  |  | solubility of the peptide [2]: poor |
| Nisin (ITSISLCTPGCKTGALMGCNMKTATCHCSIHVSK; not fully specified (some residues, bridges); also: lantibiotic nisin-A: lanthionine rings and dehydro residues not placed; UniProt P13068 24-57, looked up) [reference compound] |  | < 0.3 µM | 4 μg mL^–1 | 4 μg mL^–1 | < 0.3 µM | <1 μg mL^–1 | 9.5 µM | 32 μg mL^–1 | 0.3 µM | 1 μg mL^–1 |  | < 0.3 µM | 8 μg mL^–1 | 0.6 µM | 2 μg mL^–1 |  | + | antagonization of antibacterial activity | + | - | MIC M. luteus (NCTC2665) (M. luteus (NCTC2665); Table 2, broth microdilution in TSB, 16 h, read visually, highest tested 64 µg/ml, 2% DMSO): <1 μg mL^–1; MIC B. subtilis (168) (B. subtilis (168); [4]): 1.2 µM; MIC S. epidermidis (1587) (S. epidermidis (1587); [4]): 1.2 µM; MIC E. faecium (VRE155) (E. faecium (VRE155); [5]): < 1 µg/mL; MIC E. faecium (VRE155) (E. faecium (VRE155); [8]): <1 μg mL^–1; MIC E. faecium (VRE2297) (E. faecium (VRE2297); [7]): 2.4 µM; Kd [3]: 133 nM |
